Entries after “also recorded” stand apart in the source; their conditions may differ.
What was measured:
human kidney organoids [1] = test: RNA-seq of cisplatin-injured human kidney organoids; assay type: cell-based; conditions: for injury markers (Col8al, Fibronectin-1, Serpinel) / markers of intact proximal integrity (Lrp2 and Hnf4a): RNA-seq, cisplatin vs vehicle, or SK-124 vs DMSO within cisplatin-treated organoids
Protocol: FIGS. 13A-13E. Transcriptomic effects of SK-124 in cisplatin-induced human kidney organoid model. RNA-seq was performed on kidney organoid RNA samples (n=4/group) from FIG. 8. Volcano plot show gene regulated (>2-fold change, p(adj)<0.05) by cisplatin (versus vehicle, A) or within cisplatin-treated organoids by SK-124 (versus DMSO control, B). In Volcano plot, representative fibrosis/injury markers (Col8a1, Fni, Serpinel) and proximal tubule integrity (Lrp2 and Hnf4a) are shown. Scatterplot (C) and heatmap (D) showing integration of individual RNA-seq comparisons.
Isolated RNA samples from the mouse adenine diet study and human kidney organoid experiment were submitted to Novogene and bulk-RNA sequencing on NovaSeq X Plus Ilumina Novoseq Platform. Sequencing reads were mapped to the mouse reference genome (mm10/GRCm38) or human reference genome (GRCh38/hg38) using Salmon and differential gene expression analysis was performed using DESeq2.

human kidney organoids [2] = test: RT-qPCR in cisplatin-injured human kidney organoids; assay type: cell-based; conditions: for proximal tubule marker genes / fibrosis/injury marker genes: panel; for fibrosis/injury marker genes: five cisplatin cycles (FIG. 12B)
From the text: FIG. 8. SK-124 treatment restores gene expression changes in cisplatin-injured human kidney organoids. RNA was isolated from organoids treated as in FIG. 7 for RT-qPCR for the indicated genes. Injury markers (Pai-1, Fibronectin-1, and Co18a1) are induced by cisplatin treatment and reduced by SK-124. In contrast, the proximal tubule marker Lrp2 is reduced by cisplatin treatment and rescued by SK-124.
FIGS. 10A-10B. SK-124 treatment restores gene expression changes in cisplatin-injured human kidney organoids. RNA was isolated from organoids treated as in FIG. 9 with the indicated number of cisplatin cycles plus DMSO control (“Cis”) or SK-124 (10 μM; “Cis+SK”) for RT-qPCR. […] (B) Injury/fibrosis markers (FN-1, Co/8a1, and Pai-1) were induced by cisplatin and suppressed by SK-124.
FIGS. 12A-12B. SK-124 protects human kidney organoids from cisplatin injury in a dose-dependent manner. RNA was isolated from organoids treated as in FIG. 11 for RT-qPCR. (A) Proximal tubule marker genes are reduced by cisplatin and increased by SK-124. (B) Fibrosis/injury marker genes are induced by cisplatin and reduced by SK-124.
BJFF human induced pluripotent stem cells (hPSCs) were maintained on Geltrexcoated (Thermo Fisher Scientific) plates using StemFit Basic04 Complete (Ajinomoto Co. Inc.) as previously reported(25). The cells were passaged weekly using Accutase (STEMCELL Technologies) for dissociation and Y27632 (Tocris) for adhesion. Directed differentiation of hPSCs into kidney organoids has been published elsewhere (29). Briefly, hPSCs were differentiated into metanephric mesenchyme cells on day 8 by a three-step directed differentiation protocol. Metanephric mesenchyme was transferred into suspension culture in 96-well ultralow adhesion plates (Coming) and further differentiated into kidney organoids, as previously reported(25). Quality control measures of SIX2 immunostaining on day 8 of differentiation and CDH1, LTL, PODXL, CD146, MEIS1/2/3, and SYTOX-blue staining on day 21 were performed on all batches of kidney organoids to limit batch-to-batch heterogeneity. Kidney organoids were maintained in 200 μl of basal media consisting of Advanced RPMI (Thermo Fisher Scientific) and GlutaMAX (Thermo Fisher Scientific) in 96-well plates, as previously reported. Media changes were conducted three times weekly with removal of 90 [l and addition of 100 μl of fresh basal media.
For cisplatin induced injury, day 49 organoids were treated with 5 μM cisplatin in basal media after full media change. After 24 hours, full media exchanges were performed. This 24-hour treatment was performed twice a week, on day 52-53, day 56-57, day 59-60, and day 63-64 as well, for a total of five cisplatin treatments. Samples were obtained for RT-qPCR and immunostaining immediately following each 24-hour treatment with cisplatin, and from corresponding controls.
cDNA was prepared using Primescript RT kit (Takara Inc), with 750 ng RNA per reaction. RT-qPCR was performed by using PerfeCa® SYBR® Green FAstMix® ROX (Quanta bio) in the StepOnePlus™ Real-time PCR System (Applied Biosystems). Hmbs was used as a control housekeeping gene for mouse samples, and B-Actin was used for organoids, relative expression was calculated (2^-deltaCT method) and compared to the mean of control group if necessary. Primers used for RT-qPCR are listed in Table 2 (mouse primers) and Table 3 (human primers).

[3] = 5 cisplatin treatments (FIG. 8)
[4] = 5 cisplatin treatments (FIG. 8), Co18a1 [sic]
[5] = dose response, five cisplatin cycles (FIG. 12)
[6] = dose response, five cisplatin cycles (FIG. 12A)
[7] = time course, indicated number of cisplatin cycles, SK-124 10 μM (FIG. 10A)
[8] = time course, indicated number of cisplatin cycles, SK-124 10 μM (FIG. 10B)

## N.N.[Cl][Pt][Cl] [cisplatin, reference compound]
Human kidney organoids [1]
  injury markers (Col8al, Fibronectin-1, Serpinel): induced
  markers of intact proximal integrity (Lrp2 and Hnf4a): reduced
Human kidney organoids [2]; [3]
  Fibronectin-1 expression: induced
  Lrp2 expression: reduced
  Pai-1 expression: induced
Human kidney organoids [2]; [4]
  Col8a1 expression: induced
Human kidney organoids [2]; [5]
  Col8al expression: induction
  Fibronectin-1 expression: induction
  Pai-1 expression: induction
Human kidney organoids [2]; [6]
  Lrp2 expression: suppression
  Pth1r expression: suppression
  proximal tubule marker genes: reduced
Human kidney organoids [2]; dose response
  fibrosis/injury marker genes: induced
Human kidney organoids [2]; [7]
  Lrp2 expression: progressively reduced
  Slc17a2 expression: progressively reduced
Human kidney organoids [2]; [8]
  Col8a1 expression: induced
  Fibronectin-1 (FN-1) expression: induced
  Pai-1 expression: induced

## CCc1nnc(-c2c(OC)cc(-c3cnc4cc(-c5cnn(C)c5)ccn34)cc2OC)o1 [SK-124, 2-[2,6-Dimethoxy-4-[7-(1-methylpyrazol-4-yl)imidazo[1,2-a]pyridin-3-yl]phenyl]-5-ethyl-1,3,4-oxadiazole]
Human kidney organoids [1]
  injury markers (Col8al, Fibronectin-1, Serpinel): reduced
  markers of intact proximal integrity (Lrp2 and Hnf4a): restored
Human kidney organoids [1]; scatterplot and heatmap, SK-124 vs DMSO in the setting of injury
  genes regulated in cisplatin (versus control): conversely regulated
Human kidney organoids [2]; [3]
  Fibronectin-1 expression: reduced; also recorded: blocked
  Lrp2 expression: rescued; also recorded: preserved expression
  Pai-1 expression: reduced; also recorded: blocked
Human kidney organoids [2]; [4]
  Col8a1 expression: reduced; also recorded: blocked
Human kidney organoids [2]; dose response, cisplatin-injured organoids
  doses at which therapeutic effects are noted in the injury model: below 1 μM
Human kidney organoids [2]; [5]
  Col8al expression: suppressed
  Fibronectin-1 expression: suppressed
  Pai-1 expression: suppressed
Human kidney organoids [2]; [6]
  Lrp2 expression: dose-dependent restoration
  Pth1r expression: dose-dependent restoration
  proximal tubule marker genes: increased
Human kidney organoids [2]; dose response
  fibrosis/injury marker genes: reduced
Human kidney organoids [2]; [7]
  Lrp2 expression: restored; also recorded: improved expression
  Slc17a2 expression: restored; also recorded: improved expression
Human kidney organoids [2]; [8]
  Col8a1 expression: suppressed expression
  Fibronectin-1 (FN-1) expression: suppressed expression
  Pai-1 expression: suppressed expression

— patent publication US20260306463A1, “SIK INHIBITORS TO TREAT CHRONIC KIDNEY DISEASE” (The General Hospital Corporation, priority 2023, published 2026)
